# Earlier results as cited in US7906649B2, “Aminocyclohexanes as dipeptidyl peptidase-IV inhibitors for the treatment of diabetes” (Merck Sharp & Dohme Corp., priority 2005, dated 2011).
# How the values were obtained:
# [1] = system: hematopoiesis; settings: mouse, cyclophosphamide-induced neutropenia
# [2] = system: GRF degradation in plasma
# [3] = system: cardiac allograft survival; settings: rats; survival doubled from day 7
molecule,measurement,setting,value
CC(C)[C@H](N)C(=O)N1CCC[C@H]1B(O)O [Val-Boro-Pro],effect on hematopoiesis,[1],stimulated hematopoiesis
diprotin A,degradation of GRF to GRF[3-44] in plasma,[2],prevented
"CC(C)N1CCC(c2ccccc2)(c2ccccc2)CC1 [Prodipine, Pro-Pro-diphenyl-phosphonate]",cardiac allograft survival,[3],14 day
